{
  "source": "ChEMBL document CHEMBL4673295",
  "about": "(Bioorg Med Chem, 2021)",
  "key": {"[1]": {"assay": "Binding affinity to Escherichia coli BL21 (DE3) HPPK in presence of ATP and MgCl2 by fluorimetry"}, "[2]": {"assay": "Inhibition of Escherichia coli HPPK incubated for 30 mins by thin layer chromatography"}, "[3]": {"assay": "Binding affinity to Escherichia coli HPPK by isothermal titration calorimetry"}, "[4]": {"assay": "Binding affinity to Escherichia coli BL21 (DE3) HPPK incubated for 10 mins by fluorimetry"}},
  "data": [
    {"compound": "Nc1nc2c(c(=O)[nH]1)N=C(CO)CN2", "values": [
      {"measurement": "Kd", "setting": "[1]", "value": 170, "unit": "nM"}
    ]},
    {"compound": "CC1(C)Nc2nc(N)[nH]c(=O)c2N=C1C(=O)NCCN1CC[C@@H](SC[C@H]2O[C@@H](n3cnc4c(N)ncnc43)[C@H](O)[C@@H]2O)C[C@@H]1C(=O)O", "values": [
      {"measurement": "IC50", "setting": "[2]", "value": 380, "unit": "nM"},
      {"measurement": "Kd", "setting": "[3]", "value": 190, "unit": "nM"}
    ]},
    {"compound": "Nc1ncnc2c1ncn2[C@@H]1O[C@H](COP(=O)(O)OP(=O)(O)OP(=O)(O)O)[C@@H](O)[C@H]1O", "note": "[ADENOSINE TRIPHOSPHATE]", "values": [
      {"measurement": "Kd", "setting": "[4]", "value": 2600, "unit": "nM"}
    ]},
    {"compound": "CC1(C)Nc2nc(N)[nH]c(=O)c2N=C1C(=O)NCCN1CC[C@@H](S(=O)(=O)C[C@H]2O[C@@H](n3cnc4c(N)ncnc43)[C@H](O)[C@@H]2O)C[C@@H]1C(=O)O", "values": [
      {"measurement": "Kd", "setting": "[3]", "value": 47, "unit": "nM"}
    ]}
  ]
}
